Here are results for 8 compounds from patent US6544987B2, “Compounds, compositions, and methods for stimulating neuronal growth and elongation” (Pfizer Inc., priority 1999, dated 2003).

Data set [1] deals with T1, FKBP12 (Homo sapiens, UniProt P62942). As to the kind of experiment: Rotamase inhibition assay (N-succinyl-Ala-Ala-Pro-Phe-p-nitroanilide, chymotrypsin-coupled). The settings on record: Table 1; read-out: Rotamase Ki(app). It is filed as biochemical. How it is done: In the rotamase inhibition assay, isomerization of an artificial substrate N-succinyl-Ala-Ala-Pro-Phe-p-nitroanilide is followed spectrophotometrically. The assay includes the cis form of the substrate, FKBP12, the compound being tested, and chymotrypsin. Chymotrypsin is able to cleave p-nitroaniline from the trans form of the substrate, but not from the cis form. Release of p-nitroaniline is measured spectrophotometrically. Using this assay, various amounts of the FKBP rotamase-inhibiting compounds of formula (I) were added to cis-N-succinyl-alanine-alanine-proline-phenylalanine-para-nitroaniline (BACHEM, 3132 Kashiwa Street, Torrance, Calif. 90505) in the presence of FKBP12 and chymotrypsin. Spectrophotometric measurements of p-nitroaniline concentrations allowed estimation of the apparent Ki values, which are provided in Table 1 below.

In data set [2] the target is T1, FKBP12. As to the kind of experiment: Affinity for FKBP-12 (Ki), succinyl-Ala-Leu-Pro-Phe-pNA chymotrypsin-coupled assay. It is filed as biochemical. Also on record: key to FKBP12 inhibition (in Kiapps column): NI: no inhibition; NSI: no significant inhibition. The settings on record: for pKi: Table 2, read-out: FKBP12 Kiapps. As to the method: In a quartz cuvette, a final 1 mL buffer concentration was reached (50 mM Hepes, 100 mM NaCl, pH 8.0). Within this final reaction volume, 3.5 μL […] FKBP-12 (in 50 mM Hepes, 100 mM NaCl, pH 8.0) and 10 μL test compound in DMSO were added. The reaction was initiated by adding 10 μL chymotrypsin (100 mg/mL in 1 mM HCl) followed by 5 μL (1-20 mM succinyl-Ala-Leu-Pro-Phe-pNA in 240 mM LiCl/TFE).
The absorbance at 390 nm versus time was monitored for up to 400 seconds. Rate constants were determined from the absorbance versus time plots generated.

The target in data set [3] is T1, FKBP12. As to the kind of experiment: Binding to FKBP by microcalorimetry. How it is done: Binding of compounds to FKBP may be measured directly using microcalorimetry. Calorimetric titrations are carried out using the MCS-ITC instrument (MicroCal Inc., Northhampton, Mass.). The titrations may be conducted as follows. Protein dialysate is degassed for 15 minutes using MicroCal equipment. Stock inhibitor solution is added to co-solvent (typically DMSO) and degassed dialysate, followed by brief sonication, to produce the final inhibitor solutions to be used in the titrations. Final inhibitor solutions are in the concentration range 10 to 80 μM. Dialyzed protein is added to co-solvent and degassed dialysate to produce FKBP12 solutions in the concentration range 200 to 1600 μM. As both solutions are prepared using degassed dialysate, no additional degassing of the solutions is performed. Co-solvent is added to the protein solutions to maintain a fixed co-solvent concentration throughout the course of the titration. Protein is titrated into inhibitor using a 125-μL injection syringe. The titrations are conducted with the ligand in the cell due to low solubility of inhibitors. Typically, a preliminary 2-μL injection is followed by fifteen 8-μL injections made at varying injection intervals. A full set of dilution controls is conducted for each titration. An appropriate volume of co-solvent is added to degassed dialysate to produce the buffered co-solvent solution used to obtain heats of dilution of the reactants. After correcting for the heats of dilution and deletion of the preliminary injection, the titration results are fitted using the “One Set of Sites Model” in the ORIGIN software package supplied with the instrument.

Data set [4] relates to PC12 rat pheochromocytoma cells. Description: Neurite outgrowth activity in PC12 rat pheochromocytoma assay. The format is cell-based. Conditions: PC-12 cells; active concentration range. As to the method: For example, compounds may be tested to determine their neurotrophic activity using the method described by Lyons et al., Proc. Natl. Acad. Sci., 91:3191-3195 (1994). In this rat pheochromocytoma assay for neurite outgrowth, PC12 rat pheochromocytoma cells are maintained at 37° C. and 5% CO2 in Dulbecco's modified Eagle's medium (DMEM) supplemented with 10% heat-inactivated horse serum and 5% heat-inactivated fetal bovine serum. Cells are then plated, coated at 10^5 per 35 mm culture well with rat tail collagen at […], and allowed to attach. Medium is then replaced with DMEM supplemented with 2% horse serum, 1% fetal bovine serum, nerve growth factor (NGF), and/or varying concentrations of test compounds. The control cultures are administered NGF without any of the test compounds.

Data set [5] is described as follows: Solubility noted in FKBP12 assay table. It is filed as physicochemical. Conditions: read-out: Sol (solubility).

The structures appear in SMILES notation. pKd, pKi: −log10 of the molar value. Values joined by “and” are separate entries in the source; they are usually repeats but may differ in a detail not shown here. Identical values can stand only once.

T1 sequence (P62942 whole entry, species assumed): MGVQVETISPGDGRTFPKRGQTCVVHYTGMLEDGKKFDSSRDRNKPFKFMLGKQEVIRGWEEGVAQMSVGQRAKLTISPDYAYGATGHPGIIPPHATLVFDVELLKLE

`COc1cc(NS(=O)(=O)N2CCCC[C@H]2C(=O)OC(CCCc2ccccc2)CCCc2ccccc2)cc(OC)c1OC` [Compound 22, 1-(3,4,5-Trimethoxy-phenylsulfamoyl)-piperidine-2S-carboxylic acid 4-phenyl-1-(3-phenyl-propyl)-butyl ester]: on FKBP12 [1], the pKi is 6.42.
Same read-out and setting: the result for `CCC(C)(C)NS(=O)(=O)N1CCCC[C@H]1C(=O)OC(CCCc1ccccc1)CCCc1ccccc1` [Compound 23, 1-(1,1-Dimethyl-propylsulfamoyl)-piperidine-2S-carboxylic acid 4-phenyl-1-(3-phenyl-propyl)-butyl ester] reads 5.16.
`O=C(OCCCCc1ccccc1)[C@@H]1CCCCN1S(=O)(=O)Nc1ccccc1` [Compound 24, 1-Phenylsulfamoyl-piperidine-2S-carboxylic acid 4-phenyl-butyl ester]: the pKi at FKBP12 [2] is 5.94 and 6.29; on FKBP12 [1] it was 5.94.
Usually pKd stands for −log10 of the Kd, conventionally taken in molar units. As for `COc1cc(NS(=O)(=O)N2CCCC[C@H]2C(=O)OCCCCc2ccccc2)cc(OC)c1OC` [Compound 25, 1-(3,4,5-Trimethoxy-phenylsulfamoyl)-piperidine-2S-carboxylic acid 4-phenyl-butyl ester], the pKi on FKBP12 [2] is 6.70 and 6.74; at FKBP12 [1], 6.70. Also, on FKBP12 [3], the pKd was 5.92. In data set [4], the “Neurite-Outgrowth Activity (PC-12)” value lay within 0.001 to 1 µM.
Turning to `CCC(C)(C)NS(=O)(=O)N1CCCC[C@H]1C(=O)OCCCCc1ccccc1` [Compound 26, 1-(1,1-Dimethyl-propylsulfamoyl)-piperidine-2S-carboxylic acid 4-phenyl-butyl ester], the pKi was 6.71 and 6.66 at FKBP12 [2]; 6.71 on FKBP12 [1].
For the compound `CCC(C)(C)NS(=O)(=O)N1CCC[C@H]1C(=O)OCCCc1cccnc1` [Compound 31, 1-(1,1-Dimethyl-propylsulfamoyl)-pyrrolidine-2S-carboxylic acid 3-pyridin-3-yl-propyl ester], the pKi was 5.55 and 5.96 at FKBP12 [2]; 5.55 on FKBP12 [1]. This compound also gave a pKd on FKBP12 [3] of 5.35. Also, the “Neurite-Outgrowth Activity (PC-12)” value in data set [4] lay in the range of 0.001 to 1 µM.
With `O=C(OCCCc1cccnc1)[C@@H]1CCCN1S(=O)(=O)Nc1ccccc1` [Compound 33, 1-Phenylsulfamoyl-pyrrolidine-2S-carboxylic acid 3-pyridin-3-yl-propyl ester], the pKi on FKBP12 [2] was 5.40. Besides, on FKBP12 [3], the pKd is 4.85. In addition, in data set [4], the “Neurite-Outgrowth Activity (PC-12)” value was 0.001 to 1 µM.
As a reminder, the solubility is how much of the substance goes into solution per volume. In the case of `COc1cc(NS(=O)(=O)N2[C@@H]3CC[C@@H](C3)[C@H]2C(=O)OCCCCc2ccccc2)cc(OC)c1OC` [Compound 84, 2-(3,4,5-Trimethoxy-phenylsulfamoyl)-2-aza-bicyclo[2.2.1]heptane-exo-3-carboxylic acid 4-phenyl-butyl ester], in data set [5], the solubility was below 30 µM. Also, the “FKBP12 inhibition (in Kiapps column)” value on FKBP12 [2] (at 1 μM) is recorded as “NI”.
